Data taken from paper PMC4741798, “Imaging of carbonic anhydrase IX with an ^111In-labeled dual-motif inhibitor” (Oncotarget, 2015).
Values joined by “and” are separate entries in the source; they are usually repeats but may differ in a detail not shown here. Identical values can stand only once. “Also recorded” adds a separate entry of the source.

Experiments:
[1] = tested on: CAIX-expressing SK-RC-52 tumors; assay: SPECT/CT imaging of mice with SK-RC-52 tumors; type: in vivo; conditions: 14.8 MBq via tail vein
Experimental: Mice harboring subcutaneous SK-RC-52 tumors with the lower left flank were injected with 14.8 MBq (400 μCi) of [^111In]XYIMSR-01 in 250 μL of PBS (pH = 7.0) intravenously (tail vein). Anesthesia was then induced with 3% isofluorane and maintained at 2% isoflurane. Physiologic temperature was maintained with an external light source while the mouse was on the gantry. Imaging employed a CT-equipped Gamma Medica-Ideas SPECT scanner (Northridge, CA). SPECT data were acquired in 64 projections at 65 s per projection using medium energy pinhole collimators. A CT scan was performed in 512 projections at the end of each SPECT scan for anatomic co-registration. CT and SPECT scans were performed at 1, 4, 8, 24, and 48 h post-injection of [^111In]XYIMSR-01. Imaging data sets were reconstructed using the manufacturer's software. Display of images utilized Amide software (Dice Holdings, Inc. NY).

SK-RC-52 xenografts = assay: Biodistribution in mice bearing SK-RC-52 xenografts; type: in vivo; conditions: n = 5; for Biodistribution: Tumor: SK-RC-52 tumor
Experimental: Mice bearing SK-RC-52 xenografts within the lower left flank were injected intravenously with 740 kBq (20 μCi) of [^111In]XYIMSR-01 in 200 μL of PBS. For in vivo competition (binding specificity) studies, tumor-bearing mice were injected with 740 kBq (20 μCi) of [^111In]XYIMSR-01 and 200 nmole of 1 in 200 μL of PBS concurrently. At 1 h, 4 h, 8 h, 24 h and 48 h post-injection, mice were sacrificed by cervical dislocation and the blood was immediately collected by cardiac puncture. Heart, lungs, pancreas, spleen, fat, brain, muscle, small intestines, liver, stomach, kidney, urinary bladder, and tumor were collected. Each organ was weighed and the tissue radioactivity was measured with an automated gamma counter (1282 Compugamma CS, Pharmacia/LKBNuclear, Inc., Mt. Waverly, Vic. Australia). The percentage of injected dose per gram of tissue (% ID/g) was calculated by comparison with samples of a standard dilution of the initial dose. All measurements were corrected for radioactive decay.
Data were expressed as mean ± standard deviation (SD). Prism software (GraphPAD, San Diego, California) was used to determine statistical significance. Statistical significance was calculated using a paired t test. P-values < 0.0001 were considered significant.

[2] = 24 h + Block (co-injected 200 nmole of 1)

SMILES: CC(CCC(=O)N[C@@H](CC(=O)N[C@@H](CC(=O)N[C@@H](CCCCn1cc(CCCC(=O)Nc2nnc(S(N)(=O)=O)s2)nn1)C(=O)NCCOCCOCCNC(=O)CN1CCN(CC(=O)[O-])CCN(CC(=O)[O-])CCN(CC(=O)[O-])CC1)C(=O)O)C(=O)O)(c1ccc(O)cc1)c1ccc(O)cc1.[111In+3] [[^111In]XYIMSR-01]
- retention of radioactivity seen by SPECT/CT at late time points (in words) ([1]; 24-48 h post-injection): nearly all of the radioactivity in the kidneys and other organs had been eliminated, with tumor still retaining significant amounts of radiotracer; also recorded: Retention of radioactivity was exclusively observed in tumors by 48 h
- tumor uptake seen by SPECT/CT (in words) ([1]; two mice): radiotracer uptake was observed within the tumors at 1 h post-injection; also recorded: radiotracer uptake in tumor as early as 1 h post-injection
- Biodistribution: Tumor (SK-RC-52 xenografts; 1 h post-injection, i.v.): 26 %ID/g and 26.01 ± 5.74 %ID/g
- Biodistribution: Bladder (SK-RC-52 xenografts; 1 h post-injection, i.v.): 4.90 ± 4.96 %ID/g
- Biodistribution: Blood (SK-RC-52 xenografts; 1 h post-injection, i.v.): 1.34 ± 0.17 %ID/g
- Biodistribution: Brain (SK-RC-52 xenografts; 1 h post-injection, i.v.): 1.23 ± 1.10 %ID/g
- Biodistribution: Fat (SK-RC-52 xenografts; 1 h post-injection, i.v.): 1.03 ± 0.24 %ID/g
- Biodistribution: Heart (SK-RC-52 xenografts; 1 h post-injection, i.v.): 5.98 ± 0.53 %ID/g
- Biodistribution: Kidney (kid) (SK-RC-52 xenografts; 1 h post-injection, i.v.): 71.26 ± 8.74 %ID/g
- Biodistribution: Liver (SK-RC-52 xenografts; 1 h post-injection, i.v.): 8.36 ± 0.73 %ID/g
- Biodistribution: Lung (SK-RC-52 xenografts; 1 h post-injection, i.v.): 45.85 ± 19.89 %ID/g
- Biodistribution: Muscle (mm) (SK-RC-52 xenografts; 1 h post-injection, i.v.): 2.34 ± 2.19 %ID/g
- Biodistribution: Pancreas (SK-RC-52 xenografts; 1 h post-injection, i.v.): 3.81 ± 0.72 %ID/g
- Biodistribution: Sm. intestine (SK-RC-52 xenografts; 1 h post-injection, i.v.): 9.37 ± 1.26 %ID/g
- Biodistribution: Spleen (SK-RC-52 xenografts; 1 h post-injection, i.v.): 0.52 ± 0.04 %ID/g
- Biodistribution: Stomach (SK-RC-52 xenografts; 1 h post-injection, i.v.): 16.71 ± 2.46 %ID/g
- Tumor/blood ratio (SK-RC-52 xenografts; 1 h post-injection): 19.7 and 19.7 ± 4.8
- Tumor/kid (kidney) ratio (SK-RC-52 xenografts; 1 h post-injection): 0.36 ± 0.06
- Tumor/mm (muscle) ratio (SK-RC-52 xenografts; 1 h post-injection): 12.7 and 12.7 ± 5.8
- Biodistribution: Tumor (SK-RC-52 xenografts; 4 h post-injection, i.v.): 20.83 ± 6.25 %ID/g
- Biodistribution: Bladder (SK-RC-52 xenografts; 4 h post-injection, i.v.): 2.68 ± 1.89 %ID/g
- Biodistribution: Blood (SK-RC-52 xenografts; 4 h post-injection, i.v.): 0.65 ± 0.06 %ID/g
- Biodistribution: Brain (SK-RC-52 xenografts; 4 h post-injection, i.v.): 0.45 ± 0.06 %ID/g
- Biodistribution: Fat (SK-RC-52 xenografts; 4 h post-injection, i.v.): 0.42 ± 0.22 %ID/g
- Biodistribution: Heart (SK-RC-52 xenografts; 4 h post-injection, i.v.): 2.91 ± 0.45 %ID/g
- Biodistribution: Kidney (kid) (SK-RC-52 xenografts; 4 h post-injection, i.v.): 41.52 ± 6.07 %ID/g
- Biodistribution: Liver (SK-RC-52 xenografts; 4 h post-injection, i.v.): 4.00 ± 0.58 %ID/g
- Biodistribution: Lung (SK-RC-52 xenografts; 4 h post-injection, i.v.): 17.85 ± 3.55 %ID/g
- Biodistribution: Muscle (mm) (SK-RC-52 xenografts; 4 h post-injection, i.v.): 1.01 ± 0.28 %ID/g
- Biodistribution: Pancreas (SK-RC-52 xenografts; 4 h post-injection, i.v.): 1.54 ± 0.40 %ID/g
- Biodistribution: Sm. intestine (SK-RC-52 xenografts; 4 h post-injection, i.v.): 4.27 ± 0.69 %ID/g
- Biodistribution: Spleen (SK-RC-52 xenografts; 4 h post-injection, i.v.): 0.51 ± 0.08 %ID/g
- Biodistribution: Stomach (SK-RC-52 xenografts; 4 h post-injection, i.v.): 7.91 ± 1.28 %ID/g
- Tumor/blood ratio (SK-RC-52 xenografts; 4 h post-injection): 31.9 ± 9.4
- Tumor/kid (kidney) ratio (SK-RC-52 xenografts; 4 h post-injection): 0.50 ± 0.15
- Tumor/mm (muscle) ratio (SK-RC-52 xenografts; 4 h post-injection): 21.4 ± 7.2
- Biodistribution: Tumor (SK-RC-52 xenografts; 8 h post-injection, i.v.): 34.00 ± 15.16 %ID/g
- Biodistribution: Bladder (SK-RC-52 xenografts; 8 h post-injection, i.v.): 2.28 ± 0.51 %ID/g
- Biodistribution: Blood (SK-RC-52 xenografts; 8 h post-injection, i.v.): 0.48 ± 0.02 %ID/g
- Biodistribution: Brain (SK-RC-52 xenografts; 8 h post-injection, i.v.): 0.59 ± 0.09 %ID/g
- Biodistribution: Fat (SK-RC-52 xenografts; 8 h post-injection, i.v.): 0.45 ± 0.08 %ID/g
- Biodistribution: Heart (SK-RC-52 xenografts; 8 h post-injection, i.v.): 2.61 ± 0.35 %ID/g
- Biodistribution: Kidney (kid) (SK-RC-52 xenografts; 8 h post-injection, i.v.): 28.79 ± 21.35 %ID/g
- Biodistribution: Liver (SK-RC-52 xenografts; 8 h post-injection, i.v.): 3.65 ± 0.65 %ID/g
- Biodistribution: Lung (SK-RC-52 xenografts; 8 h post-injection, i.v.): 17.39 ± 8.99 %ID/g
- Biodistribution: Muscle (mm) (SK-RC-52 xenografts; 8 h post-injection, i.v.): 1.09 ± 0.15 %ID/g
- Biodistribution: Pancreas (SK-RC-52 xenografts; 8 h post-injection, i.v.): 1.61 ± 0.28 %ID/g
- Biodistribution: Sm. intestine (SK-RC-52 xenografts; 8 h post-injection, i.v.): 4.31 ± 0.67 %ID/g
- Biodistribution: Spleen (SK-RC-52 xenografts; 8 h post-injection, i.v.): 0.64 ± 0.07 %ID/g
- Biodistribution: Stomach (SK-RC-52 xenografts; 8 h post-injection, i.v.): 8.74 ± 1.26 %ID/g
- Tumor/blood ratio (SK-RC-52 xenografts; 8 h post-injection): 77.0 ± 32.5
- Tumor/kid (kidney) ratio (SK-RC-52 xenografts; 8 h post-injection): 3.1 ± 3.1
- Tumor/mm (muscle) ratio (SK-RC-52 xenografts; 8 h post-injection): 34.2 ± 16.0
- Biodistribution: Tumor (SK-RC-52 xenografts; [2]): 1 %ID/g and 1.41 ± 0.20 %ID/g
- Biodistribution: Bladder (SK-RC-52 xenografts; [2]): 0.20 ± 0.07 %ID/g
- Biodistribution: Blood (SK-RC-52 xenografts; [2]): 0.03 ± 0.00 %ID/g
- Biodistribution: Brain (SK-RC-52 xenografts; [2]): 0.03 ± 0.00 %ID/g
- Biodistribution: Fat (SK-RC-52 xenografts; [2]): 0.02 ± 0.01 %ID/g
- Biodistribution: Heart (SK-RC-52 xenografts; [2]): 0.04 ± 0.01 %ID/g
- Biodistribution: Kidney (kid) (SK-RC-52 xenografts; [2]): 0.68 ± 0.14 %ID/g
- Biodistribution: Liver (SK-RC-52 xenografts; [2]): 0.10 ± 0.02 %ID/g
- Biodistribution: Lung (SK-RC-52 xenografts; [2]): 0.12 ± 0.02 %ID/g
- Biodistribution: Muscle (mm) (SK-RC-52 xenografts; [2]): 0.02 ± 0.00 %ID/g
- Biodistribution: Pancreas (SK-RC-52 xenografts; [2]): 0.03 ± 0.00 %ID/g
- Biodistribution: Sm. intestine (SK-RC-52 xenografts; [2]): 0.08 ± 0.01 %ID/g
- Biodistribution: Spleen (SK-RC-52 xenografts; [2]): 0.08 ± 0.01 %ID/g
- Biodistribution: Stomach (SK-RC-52 xenografts; [2]): 0.14 ± 0.02 %ID/g
